Assays:
[1] = Permeability across human Caco-2 cells; format: ADME, cell-based; settings: read-out: permeability
[2] = Stability in rabbit liver microsome after 1 hr; format: ADME, Oryctolagus cuniculus; settings: liver microsomes, read-out: Stability

Papp [1] [×10⁻⁶ cm/s]	remaining at 1 h [2] [%]	SMILES
46.9	> 80	CCC(=O)Nc1cc2c(NCc3ccc(OC)c(Cl)c3)ncnc2c(CCO)c1OC
17.3	–	COc1ccc(CNc2ncnc3c(CCO)c(OC)c(NC(C)=O)cc23)cc1Cl
–	> 80	CCCc1c(OC)c(NC(=O)C(F)(F)F)cc2c(NCc3ccc(OC)c(Cl)c3)ncnc12
